Read-outs that look alike come from different tables or passages of the source. Values belong to the molecule of their own block, whether it stands above or below them.
Legend:
[1] = tested on: OVCAR-3 cells (ovarian cancer); experiment: Cell proliferation assay (MTS), OVCAR-3; type: cell-based; conditions: for IC50: 3 days treatment, MTS, read-out: IC50 (μM) Ovarian cancer OVCAR-3; for antiproliferative activity relative to RM-133, OVCAR-3: fold of RM-133 activity (>1 = more active)
Experimental: (§1) The different aminosteroids were dissolved in methanol (50 mM).

[2] = tested on: PC-3 (prostate cancer) cells; experiment: Cell proliferation assay (MTS), PC-3; type: cell-based; conditions: 72 h; 3 days treatment, MTS; read-out: IC50 (μM) Prostate cancer PC-3
Experimental: as §1

[3] = tested on: LAPC-4 (prostate cancer) cells; experiment: Cell proliferation assay (MTS), LAPC-4; type: cell-based; conditions: Homo sapiens, LAPC4, 72 h, 3 days treatment, MTS; read-out: IC50 (μM) Prostate cancer LAPC-4
Experimental: as §1

[4] = tested on: LNCaP (prostate cancer) cells; experiment: Cell proliferation assay (MTS), LNCaP; type: cell-based; conditions: Homo sapiens, 72 h, 3 days treatment, MTS, read-out: IC50 (μM) Prostate cancer LNCaP
Experimental: as §1

[5] = tested on: Human pancreas cancer cells (PANC-1); experiment: Cell proliferation assay (MTS), PANC-1; type: cell-based; conditions: for IC50: 3 days treatment, MTS, read-out: IC50 (μM) Pancreatic cancer PANC-1; for antiproliferative activity relative to RM-133, PANC-1: fold of RM-133 activity (>1 = more active)
Experimental: as §1

[6] = tested on: T-47D breast cancer cell line; experiment: Cell proliferation assay (MTS), T-47D; type: cell-based; conditions: Homo sapiens, T47D, 72 h; 3 days treatment, MTS
Experimental: as §1

[7] = tested on: MCF-7 breast cancer cells; experiment: Cell proliferation assay (MTS), MCF-7; type: cell-based, human; conditions: Homo sapiens, MCF7, 72 h, 3 days treatment
Experimental: as §1

[8] = tested on: HL-60 (acute promyelocytic leukemia) cells; experiment: Cell proliferation assay (MTS), HL-60; type: cell-based; conditions: for IC50: 3 days treatment, MTS, read-out: IC50 (μM) HL-60 (leukemia); for antiproliferative activity relative to RM-133, HL-60: fold of RM-133 activity (>1 = more active)
Experimental: as §1

[9] = human, 1 h
Experimental: (§2) Assays were performed at 37° C. for 1 h, with or without 10 mM NADPH in the presence of 40 μg of human liver microsome from Corning (Melrose, Mass., USA) and 10 μM of aminosteroid substrate in a final 100 μL volume of 50 mM Tris buffer (pH 7.4) supplemented with 10 mM MgCl2. Assays were ended by adding 100 μL of MeOH followed by centrifugation at 13,000 g for 10 min to obtain a pellet of proteins. The supernatant of 2 assays was pooled and submitted to HPLC-MS analysis (Shimadzu LCMS-2020 APCI, Alltima HP C18 (250 mm×4.6 mm, 5 μm) column, MeOH:H2O gradient). Remaining substrate (expressed in %) was calculated by dividing the area under the curve of the substrate for the assays without NADPH by the area under the curve of the substrate for the assays with NADPH and multiplied by 100. Values represent the average of 2 independent experiments.

[10] = tested on: primary pancreas normal cells; experiment: Toxicity on normal cells (MTS), primary pancreas; type: cell-based, human; conditions: for Selectivity Index Pancreas: IC50 normal cells/IC50 cancer cells (primary pancreas / PANC-1); for IC50: human normal cells; for times more toxic relative to RM-133, primary pancreas cells: human, 3 days
Experimental: as §1

[11] = tested on: renal proximal tubule epithelial cells (RPTEC); experiment: Toxicity on normal cells (MTS), RPTEC; type: cell-based, human; conditions: for IC50: normal (kidney) cells, read-out: IC50 (μM) RPTEC (normal cells)
Experimental: as §1

[12] = tested on: primary ovary normal cells; experiment: cells; type: cell-based, human; conditions: for Selectivity Index Ovary: IC50 normal cells/IC50 cancer cells (primary ovary / OVCAR-3); for IC50: human normal cells, read-out: IC50 (μM) Primary Ovary (normal cells)
Experimental: as §1

[13] = Metabolic stability assay, human liver microsomes; conditions: 1 h
Experimental: as §2

[14] = tested on: PANC-1, BxPC-3, Hs766, OVCAR-3, Caov3, SKOV3, MCF-7, T-47D and LAPC-4 cell lines; experiment: Cytotoxic activity screening at 5 and 1 μM on cancer cell lines; conditions: independently of the cancer cell line tested, result in words
Experimental: The cell proliferation assay was performed using 3-(4,5-dimethylthiazol-2-yl)-5-(3-carboxymethoxyphenyl)2-(4-sulfophenyl)-2H-tetrazolium (MTS) (Cell Titer 96 Aqueous, Promega, Nepean, ON, Canada) as previously described [3, 4, 5]. Briefly, cells were plated in triplicate in 96-well plates (1×10^4 cells/well) in appropriate culture medium (total of 90 μL). Before each treatment, the cells were incubated at 37° C. in a 5% CO2 humidified atmosphere for 24 h. The different aminosteroids were dissolved in methanol (50 mM). The stock solutions were diluted at multiple concentrations with culture media in order to obtain the desired final concentration followed by the addition of 10 μL to each well, and the mixture incubated for 3 days. Following treatment, MTS (10 μL) was added to each well and the mixture was incubated for 4 h.

Molecule: C#C[C@@]1(O)CC[C@H]2[C@@H]3CCc4cc(OC)c(C(=O)N5CCN(C(=O)[C@@H]6CCCN6C(=O)c6ccc7ccccc7n6)CC5)cc4[C@H]3CC[C@@]21C [Compound 25, [(17β)-17-ethynyl-17-hydroxy-3-methoxyestra-1,3,5(10)-trien-2-yl](4-{[(2S)-1-(quinolin-2-ylcarbonyl)pyrrolidin-2-yl]carbonyl}piperazin-1-yl)methanone]
IC50 ([1]; Homo sapiens, OVCAR-3, 72 h): 5.2 ± 1.6 µM
IC50 [2]: 1.7 ± 0.4 µM
IC50 [3]: 0.5 ± 0.2 µM
IC50 [4]: 0.8 ± 0.2 µM
IC50 ([5]; Homo sapiens, PANC-1, 72 h): 3.5 ± 0.4 µM
IC50 [6]: 0.3 ± 0.2 µM
IC50 [7]: 2.2 ± 0.1 µM

IC50 [1]: > 50 µM
IC50 [8]: > 50 µM
IC50 [5]: > 50 µM
increased metabolic stability relative to RM-133 ([9]; microsomes): 2.4 fold
Molecule: (2β,3α,5α,17α)-3,17-dihydroxy-2-(1-methyl-4-t[(2S)-1-(quinolin-2-ylcarbonyl) pyrrolidin-2-yl]carbonylpiperazin-1-ium-1-yl)pregn-20-yne iodide [6 (CH3-salt)]
antiproliferative activity relative to RM-133, OVCAR-3 [1]: significant loss of activity
antiproliferative activity relative to RM-133, HL-60 [8]: significant loss of activity
antiproliferative activity relative to RM-133, PANC-1 [5]: significant loss of activity

Molecule: C#C[C@@]1(O)CC[C@H]2[C@@H]3CC[C@H]4CC(=O)[C@@H](N5CCN(C(=O)[C@@H]6CCCN6C(=O)c6ccc7ccccc7n6)CC5)C[C@]4(C)[C@H]3CC[C@@]21C [2 (ketone), (2β,5α,17α)-17-hydroxy-2-(4-{[(2S)-1-(quinolin-2-ylcarbonyl)pyrrolidin-2-yl]carbonyl}piperazin-1-yl)pregn-20-yn-3-one]
Selectivity Index Pancreas [10]: 0.8
IC50 [10]: 5.41 µM
times more toxic relative to RM-133, primary pancreas cells [10]: 1.7 times
IC50 ([1]; Homo sapiens, OVCAR-3, 72 h): 2.75 µM
antiproliferative activity relative to RM-133, OVCAR-3 [1]: 2 fold
IC50 ([8]; Homo sapiens, HL-60, 72 h): 6.52 µM
IC50 ([5]; Homo sapiens, PANC-1, 72 h): 7.01 µM
IC50 ([11]; Homo sapiens, RPTEC): 20.7 µM
Selectivity Index Ovary [12]: 5.5
IC50 [12]: 15 µM

Molecule: (3α,5α,17α)-pregn-20-yne-3,17-diol [11 (no side-chain; and 3α-OH)]
IC50 [1]: > 50 µM
antiproliferative activity relative to RM-133, OVCAR-3 [1]: inactive
IC50 [8]: > 50 µM
antiproliferative activity relative to RM-133, HL-60 [8]: inactive
IC50 [5]: > 50 µM
antiproliferative activity relative to RM-133, PANC-1 [5]: inactive

Molecule: (17β)-17-ethynyl-17-hydroxy-2-{4-[1-(quinolin-2-ylcarbonyl)-L-prolyl]piperazin-1-yl}estra-1,3,5(10)-trien-3-yl dimethylcarbamate [Compound 1]
more cytotoxic relative to RM-133, RPTEC ([11]; normal cells): 5.0 fold

IC50 ([1]; Homo sapiens, OVCAR-3, 72 h): > 50 µM
IC50 ([8]; Homo sapiens, HL-60, 72 h): > 50 µM
IC50 ([5]; Homo sapiens, PANC-1, 72 h): > 50 µM
Molecule: CN1CCN(C(=O)[C@@H]2CCCN2C(=O)c2ccc3ccccc3n2)CC1 [10 (side-chain only), (4-methylpiperazin-1-yl)[(2S)-1-(quinolin-2-ylcarbonyl)pyrrolidin-2-yl]methanone]
antiproliferative activity relative to RM-133, OVCAR-3 [1]: completely inactive
metabolic stability (% of remaining compound) ([13]; 10 μM, 40 μg human liver microsomes, result in words): more stable than steroid 12 lacking the 2β-side chain or RM-133 itself
antiproliferative activity relative to RM-133, HL-60 [8]: completely inactive
antiproliferative activity relative to RM-133, PANC-1 [5]: completely inactive

Molecule: C#Cc1cc2c(cc1N1CCN(C(=O)[C@@H]3CCCN3C(=O)c3ccc4ccccc4n3)CC1)[C@H]1CC[C@@]3(C)[C@@H](CC[C@@]3(O)C#C)[C@@H]1CC2 [Compound 17a, {4-[(17β)-3,17-diethynyl-17-hydroxyestra-1,3,5(10)-trien-2-yl]piperazin-1-yl}[(2S)-1-(quinolin-2-ylcarbonyl)pyrrolidin-2-yl]methanone]
cytotoxic activity in screening (cell survival) [14]: only slight differences in their respective levels of activity

Molecule: C#C[C@@]1(O)CC[C@H]2[C@@H]3CC[C@H]4C[C@H](OC(=O)N(C)C)CC[C@]4(C)[C@H]3CC[C@@]21C [12 (no side-chain; and 3-carbamate), (3α,5α,17α)-17-hydroxypregn-20-yn-3-yl dimethylcarbamate]
IC50 ([1]; Homo sapiens, OVCAR-3, 72 h): 48.1 µM
antiproliferative activity relative to RM-133, OVCAR-3 [1]: inactive
IC50 ([8]; Homo sapiens, HL-60, 72 h): 15.2 µM
antiproliferative activity relative to RM-133, HL-60 [8]: inactive
IC50 ([5]; Homo sapiens, PANC-1, 72 h): > 50 µM
antiproliferative activity relative to RM-133, PANC-1 [5]: inactive

IC50 [1]: 29.9 µM
increased metabolic stability relative to RM-133 ([13]; human hepatic microsomes): 2.6 fold
IC50 [8]: 43.7 µM
IC50 [5]: > 50 µM
Molecule: C#CC1(O)CCC2C3CCC4CC(O)C([N+]5([O-])CCN(C(=O)C6CCCN6C(=O)c6ccc7ccccc7n6)CC5)CC4(C)C3CCC21C [7 (N-oxime), {4-[(2β,3α,5α,17α)-3,17-dihydroxypregn-20-yn-2-yl]-4-oxidopiperazin-1-yl}[(2S)-1-(quinolin-2-ylcarbonyl)pyrrolidin-2-yl]methanone]
antiproliferative activity relative to RM-133, OVCAR-3 [1]: significant loss of activity
antiproliferative activity relative to RM-133, HL-60 [8]: significant loss of activity
antiproliferative activity relative to RM-133, PANC-1 [5]: significant loss of activity

Molecule: C#C[C@]1(O)CC[C@H]2[C@@H]3CCc4cc(OC)c(CN5CCN(C(=O)[C@@H]6CCCN6C(=O)c6ccc7ccccc7n6)CC5)cc4[C@H]3CC[C@@]21C [Compound 29]
IC50 ([1]; Homo sapiens, OVCAR-3, 72 h): 5 ± 0.2 µM
IC50 [2]: 1.7 ± 0.3 µM
IC50 [3]: 0.7 ± 0.2 µM
IC50 [4]: 1.3 ± 0.5 µM
IC50 ([5]; Homo sapiens, PANC-1, 72 h): 2.6 ± 0.7 µM
IC50 [6]: 0.4 ± 0.2 µM
IC50 [7]: 2.3 ± 0.6 µM

Molecule: C#C[C@@]1(O)CC[C@H]2[C@@H]3CCc4cc(OS(N)(=O)=O)c(N5CCN(C(=O)[C@@H]6CCCN6C(=O)c6ccc7ccccc7n6)CC5)cc4[C@H]3CC[C@@]21C [Compound 4, (17β)-17-ethynyl-17-hydroxy-2-{4-[1-(quinolin-2-ylcarbonyl)-L-prolyl]piperazin-1-yl}estra-1,3,5(10)-trien-3-yl sulfamate]
times less toxic relative to RM-133, primary pancreas cells [10]: 3.2 times
IC50 ([1]; Homo sapiens, OVCAR-3, 72 h): 3.1 ± 0.5 µM
IC50 [2]: 1.6 ± 0.1 µM
IC50 [3]: 0.3 ± 0.2 µM
IC50 [4]: 0.9 ± 0.3 µM
IC50 ([5]; Homo sapiens, PANC-1, 72 h): 3 ± 0.2 µM
phenolic metabolite RM-581-OH (stability of potential prodrugs to hydrolysis) ([9]; 10 μM, pH 7.4): no trace of the phenolic metabolite RM-581-OH could be observed
IC50 [6]: 0.2 ± 0.01 µM
times less toxic relative to RM-133, primary ovary cells [12]: 2.9 times
IC50 [7]: 1.2 ± 0.4 µM

Molecule: (17β)-17-ethynyl-17-hydroxy-2-{4-[1-(quinolin-2-ylcarbonyl)-L-prolyl]piperazin-1-yl}estra-1,3,5(10)-trien-3-yl dihydrogen phosphate [Compound 5]
times less toxic relative to RM-133, primary pancreas cells ([10]; normal cells): 1.8 times
times less toxic relative to RM-133, primary ovary cells ([12]; normal cells): 1.7 times

Molecule: C#C[C@@]1(O)CC[C@H]2[C@@H]3CC[C@H]4C[C@@H](N5CCN(C(=O)[C@@H]6CCCN6C(=O)c6ccc7ccccc7n6)CC5)CC[C@]4(C)[C@H]3CC[C@@]21C [15 (side-chain at 3β), {4-[(3β,5α,17α)-17-hydroxypregn-20-yn-3-yl]piperazin-1-yl}[(2S)-1-(quinolin-2-ylcarbonyl)pyrrolidin-2-yl]methanone]
IC50 ([1]; Homo sapiens, OVCAR-3, 72 h): > 50 µM
antiproliferative activity relative to RM-133, OVCAR-3 [1]: completely inactive
IC50 ([8]; Homo sapiens, HL-60, 72 h): > 50 µM
antiproliferative activity relative to RM-133, HL-60 [8]: completely inactive
IC50 ([5]; Homo sapiens, PANC-1, 72 h): > 50 µM
antiproliferative activity relative to RM-133, PANC-1 [5]: completely inactive
metabolic stability (% of remaining compound) ([9]; microsomes, 10 μM, pH 7.4): little to no variation on the metabolic stability relative to RM-133

Molecule: C#C[C@@]1(O)CC[C@H]2[C@@H]3CC[C@H]4CC(=O)C(N5CCN(C(=O)[C@@H]6CCCN6C(=O)c6ccc7ccccc7n6)CC5)=C[C@]4(C)[C@H]3CC[C@@]21C [1 (enone), (5α,17α)-17-hydroxy-2-(4-{[(2S)-1-(quinolin-2-ylcarbonyl)pyrrolidin-2-yl]carbonyl}piperazin-1-yl)pregn-1-en-20-yn-3-one]
Selectivity Index Pancreas [10]: 3.7
IC50 [10]: 2.2 µM
times more toxic relative to RM-133, primary pancreas cells [10]: 4.3 times
IC50 ([1]; Homo sapiens, OVCAR-3, 72 h): 0.24 µM
antiproliferative activity relative to RM-133, OVCAR-3 [1]: 22.9 fold
IC50 [2]: 0.002 µM
IC50 [3]: 0.03 µM
IC50 [4]: 0.002 µM
IC50 ([8]; Homo sapiens, HL-60, 72 h): 3.16 µM
antiproliferative activity relative to RM-133, HL-60 [8]: 2.3 fold
IC50 ([5]; listed as Enone 1): 0.6 µM
IC50 ([5]; Homo sapiens, PANC-1, 72 h): 0.59 µM
antiproliferative activity relative to RM-133, PANC-1 [5]: 11.3 fold
IC50 ([11]; Homo sapiens, RPTEC): 4.5 to 15.3 µM
IC50 [11]: 4.55 µM
Selectivity Index Ovary [12]: 38
IC50 [12]: 9.12 µM
times more toxic relative to RM-133, primary ovary cells ([12]; human, 3 days): 1.6 times
